Source: patent EP0210284B1, “1,3-Dithiol-2-ylidene derivatives” (priority 1985, dated 1987)
Like-named read-outs stand apart in the source and are kept apart here.

Key:
[1] = system: Acute Liver Injury Induced by Carbon Tetrachloride; assay: Protective effect on acute liver injury induced by carbon tetrachloride; format: in vivo, mice (ddY mice); settings: for Liver Damage Index: 50mg/kg orally in olive oil 6 hours before carbon tetrachloride (0.05ml/kg orally), visual score 0: normal, 2: slightly, 4: distinctly, 6: remarkably injured, n=5, CCl4 alone 6.0; for inhibition in vivo at 50 mg/kg: Mus musculus, po, 50mg/kg orally 6 hours before carbon tetrachloride (0.05ml/kg orally), CCl4 alone 0, Normal 100
Procedure: A test compound was dissolved or suspended in olive oil and administered orally at a dose of 50mg/kg to mice (ddY mice, ? , 23 ± 2g, n=5). After 6 hours, carbon tetrachloride (0.05ml/kg) was administered orally. 24 Hours after the administration of carbon tetrachloride, BSP (sodium sulfobromophthalene; 75mg/kg) was administered intravenously. Thirty minutes later, the cardiac blood was collected, and GPT (glutamic-pyruvic transaminase) activity and the retention rate of BSP in the plasma were measured. Further, the liver injury immediately after the collection of the blood was visually observed and evaluated by the following score for liver damage index. 0: normal 2: Slightly injured 4: distinctly injured 6: remarkably injured

mice (ddY mice) = assay: Acute toxicity test; format: in vivo; settings: oral in olive oil, mortality one week after the administration, n=5
Procedure: A test compound was dissolved or suspended in olive oil and administered orally to mice (ddY mice, ? , 23±2g, n=5). The acute toxicity value (LD₅₀) was determined from the mortality one week after the administration.

[2] = 24.5 h, retention rate of BSP in plasma 30 minutes after BSP 75mg/kg i.v., read-out: % Prophylaxis BSP
[3] = plasma GPT about 24.5 hours after CCl4, read-out: % Prophylaxis p-GPT

| Structure (SMILES) | Liver Damage Index [1] | inhibition in vivo at 50 mg/kg [1, 2] | inhibition in vivo at 50 mg/kg [1, 3] | acute toxicity value (LD50) (mice (ddY mice)) |
| --- | --- | --- | --- | --- |
| CCCC(=O)C(C(=O)c1ccccc1)=C1SC=CS1 [Compound 7, 2-(1,3-dithiol-2-ylidene)-1-phenyl-1,3-hexanedione] | 1.6 | 108% | 100% | at least 2 g |
| CC(C)CC(=O)C(C(=O)c1ccccc1)=C1SC=CS1 [Compound 8, 2-(1,3-dithiol-2-ylidene)-5-methyl-1-phenyl-1,3-hexanedione] | 1.2 | 110% | 100% | at least 2 g |
| CC(C)(C)C(=O)C(C(=O)c1ccccc1)=C1SC=CS1 [Compound 9, 2-(1,3-dithiol-2-ylidene)-4,4-dimethyl-1-phenyl-1,3-pentanedione] | 0.4 | 103% | 100% | – |
| CC=CC(=O)C(C(=O)c1ccccc1)=C1SC=CS1 [Compound 11, 2-(1,3-dithiol-2-ylidene)-1-phenyl-4-hexene-1,3-dione] | 0.8 | 105% | 100% | – |
| CC(=O)C(C(=O)c1ccc(C)cc1)=C1SC=CS1 [Compound 12, 2-(1,3-dithiol-2-ylidene)-1-(4-methylphenyl)-1,3-butanedione] | 0.6 | 114% | 100% | at least 2 g |
| CC(=O)C(C(=O)c1ccc(Cl)cc1)=C1SC=CS1 [Compound 14, 2-(1,3-dithiol-2-ylidene)-1-(4-chlorophenyl)-1,3-butanedione] | 0.4 | 113% | 100% | – |
| CC(=O)C(C(=O)c1ccc(Br)cc1)=C1SC=CS1 [Compound 15, 2-(1,3-dithiol-2-ylidene)-1-(4-bromophenyl)-1,3-butanedione] | 3.2 | 105% | 100% | – |
| COc1ccccc1C(=O)C(C(C)=O)=C1SC=CS1 [Compound 16, 2-(1,3-dithiol-2-ylidene)-1-(2-methoxyphenyl)-1,3-butanedione] | 0.6 | 95% | 99% | – |
| COc1ccc(C(=O)C(C(C)=O)=C2SC=CS2)cc1 [Compound 17, 2-(1,3-dithiol-2-ylidene)-1-(4-methoxyphenyl)-1,3-butanedione] | 0 | 100% | 100% | at least 2 g |
| COc1ccc(C(=O)C(C(C)=O)=C2SC=CS2)cc1OC [Compound 18, 2-(1,3-dithiol-2-ylidene)-1-(3,4-dimethoxyphenyl)-1,3-butanedione] | 0.4 | 100% | 54% | – |
| CC(=O)C(C(=O)c1ccc([N+](=O)[O-])cc1)=C1SC=CS1 [Compound 19, 2-(1,3-dithiol-2-ylidene)-1-(4-nitrophenyl)-1,3-butanedione] | 1.6 | 100% | 100% | – |
| CC(=O)C(C(=O)c1cccnc1)=C1SC=CS1 [Compound 21, 2-(1,3-dithiol-2-ylidene)-1-(3-pyridyl)-1,3-butanedione] | 0.8 | 100% | 98% | – |
| CC(=O)C(C(=O)c1ccncc1)=C1SC=CS1 [Compound 22, 2-(1,3-dithiol-2-ylidene)-1-(4-pyridyl)-1,3-butanedione] | 0.2 | 120% | 100% | – |
| CC(=O)C(C(=O)c1ccco1)=C1SC=CS1 [Compound 23, 2-(1,3-dithiol-2-ylidene)-1-(2-furyl)-1,3-butanedione] | 1.0 | 110% | 94% | – |
| CC(=O)C(C(=O)c1cccs1)=C1SC=CS1 [Compound 24, 2-(1,3-dithiol-2-ylidene)-1-(2-thienyl)-1,3-butanedione] | 0 | 102% | 100% | – |
| CC(=O)C(C(=O)c1ccc[nH]1)=C1SC=CS1 [Compound 25, 2-(1,3-dithiol-2-ylidene)-1-(2-pyrrolyl)-1,3-butanedione] | 2.2 | 88% | 76% | – |

| Structure (SMILES) | Liver Damage Index [1] | inhibition in vivo at 50 mg/kg [1, 2] | inhibition in vivo at 50 mg/kg [1, 3] | acute toxicity value (LD50) (mice (ddY mice)) |
| --- | --- | --- | --- | --- |
| CC(=O)C(C(=O)c1cnccn1)=C1SC=CS1 [Compound 26, 2-(1,3-dithiol-2-ylidene)-1-pyrazinyl-1,3-butanedione] | 0.4 | 99% | 96% | – |
| CC(=O)C(C(=O)c1cccc2ccccc12)=C1SC=CS1 [Compound 27, 2-(1,3-dithiol-2-ylidene)-1-(1-naphthyl)-1,3-butanedione] | 0 | 100% | 100% | at least 2 g |
| CC(=O)C(C(=O)c1ccc2ccccc2c1)=C1SC=CS1 [Compound 28, 2-(1,3-dithiol-2-ylidene)-1-(2-naphthyl)-1,3-butanedione] | 0 | 100% | 99% | at least 2 g |
| CC(=O)C(C(=O)c1cc2ccccc2[nH]1)=C1SC=CS1 [Compound 29, 2-(1,3-dithiol-2-ylidene)-1-(2-indolyl)-1,3-butanedione] | 0.8 | 104% | 100% | – |
| CC(=O)C(C(=O)c1ccc2ccccc2n1)=C1SC=CS1 [Compound 30, 2-(1,3-dithiol-2-ylidene)-1-(2-quinolyl)-1,3-butanedione] | 2.0 | 105% | 98% | – |
| O=C(C(C(=O)C(F)(F)F)=C1SC=CS1)c1ccccc1 [Compound 31, 2-(1,3-dithiol-2-ylidene)-1-phenyl-4,4,4-trifluoro-1,3-butanedione] | 0.4 | 106% | 100% | – |
| CC(=O)C(C(=O)Cc1ccccc1)=C1SC=CS1 [Compound 32, 3-(1,3-dithiol-2-ylidene)-1-phenyl-2,4-pentanedione] | 0.4 | 124% | 95% | – |
| CC(=O)C(C(=O)C=Cc1ccccc1)=C1SC=CS1 [Compound 33, 4-(1,3-dithiol-2-ylidene)-1-phenyl-1-hexene-3,5-dione] | 4.2 | 86% | 77% | – |
| O=C(C(C(=O)c1ccccc1)=C1SC=CS1)c1ccccc1 [Compound 34, 2-(1,3-dithiol-2-ylidene)-1,3-diphenyl-1,3-propanedione] | 0.8 | 112% | 100% | – |
| O=C(C(C(=O)c1ccc(Cl)cc1)=C1SC=CS1)c1ccc(Cl)cc1 [Compound 35, 2-(1,3-dithiol-2-ylidene)-1,3-di(4-chlorophenyl)-1,3-propanedione] | 0 | 114% | 100% | – |
| COc1ccc(C(=O)C(C(=O)c2ccc(OC)cc2)=C2SC=CS2)cc1 [Compound 36, 2-(1,3-dithiol-2-ylidene)-1,3-di(4-methoxyphenyl)-1,3-propanedione] | 0 | 119% | 100% | – |
| O=C(Cc1ccccc1)C(C(=O)c1ccccc1)=C1SC=CS1 [Compound 37, 2-(1,3-dithiol-2-ylidene)-1,4-diphenyl-1,3-butanedione] | 1.8 | 99% | 100% | – |
| O=C(C=Cc1ccccc1)C(C(=O)c1ccccc1)=C1SC=CS1 [Compound 38, 4-(1,3-dithiol-2-ylidene)-1,5-diphenyl-1-pentene-3,5-dione] | 3.2 | 96% | 66% | – |
| CC(=O)C(C(=O)c1ccc(O)cc1)=C1SC=CS1 [Compound 45, 2-(1,3-dithiol-2-ylidene)-1-(4-hydroxyphenyl)-1,3-butanedione] | 0.2 | 111% | 100% | at least 2 g |
| CC(=O)C(C(=O)c1ccc(N)cc1)=C1SC=CS1 [Compound 46, 2-(1,3-dithiol-2-ylidene)-1-(4-aminophenyl)-1,3-butanedione] | 0.4 | 106% | 100% | – |
